Reference: patent US12655116B2, “Substituted isophthalic acid diamides” (Bayer Aktiengesellschaft, priority 2020, dated 2026)

What was measured:
AVEFA = assay: Pre-emergence herbicidal action against AVEFA; assay type: in vivo, Avena fatua; conditions: 80 g/ha, pre-emergence
In short: (§1)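 Herbicidal effect was assessed 3 weeks after treatment by visual comparison with untreated controls, 100% denoting dead plants. Aqueous WP or EC preparations had been applied at 600 to 800 l/ha with 0.2% wetting agent to the soil covering freshly sown seeds.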

VIOTR [1] = assay: Pre-emergence herbicidal action against VIOTR; assay type: in vivo, Viola tricolor
In short: as §1

VERPE [2] = assay: Post-emergence herbicidal action against VERPE; assay type: in vivo, Veronica persica; conditions: 20 g/ha
In short: (§2)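 Post-emergence greenhouse test; one-leaf stage, 2–3 wk post-sowing, sandy loam. Foliar spray of WP/EC in water, 600–800 l/ha, +0.2% wetting agent. Visual % action at ~3 wk vs untreated (100% = plants dead).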

ECHCG [3] = assay: Pre-emergence herbicidal action against ECHCG; assay type: in vivo, Echinochloa crus-galli
In short: as §1

PHBPU [4] = assay: Post-emergence herbicidal action against PHBPU; assay type: in vivo, Pharbitis purpurea
In short: as §2

MATIN = assay: Pre-emergence herbicidal action against MATIN; assay type: in vivo, Matricaria inodora
In short: as §1

DIGSA [5] = assay: Pre-emergence herbicidal action against DIGSA; assay type: in vivo, Digitaria sanguinalis
In short: as §1

VIOTR [6] = assay: Post-emergence herbicidal action against VIOTR; assay type: in vivo, Viola tricolor; conditions: 20 g/ha
In short: as §2

PHBPU [7] = assay: Pre-emergence herbicidal action against PHBPU; assay type: in vivo, Pharbitis purpurea; conditions: dosage 80 g/ha
In short: as §1

ALOMY [8] = assay: Post-emergence herbicidal action against ALOMY; assay type: in vivo, Alopecurus myosuroides; conditions: dosage 20 g/ha, visual assessment about 3 weeks after treatment vs untreated controls
In short: as §2

DIGSA [9] = assay: Post-emergence herbicidal action against DIGSA; assay type: in vivo, Digitaria sanguinalis; conditions: for Post-emergence action against DIGSA: 20 g/ha
In short: as §2

ABUTH = assay: Pre-emergence herbicidal action against ABUTH; assay type: in vivo, Abutilon theophrasti; conditions: for Pre-emergence action against ABUTH (herbicidal activity): 80 g/ha, scored visually after 3 weeks vs untreated controls (100% = plants have died, 0% = like control plants); for Pre-emergence action against ABUTH (herbicidal activity in percent): dosage 20 g/ha, scored visually after 3 weeks vs untreated controls, 100% = plants have died, 0% = like control plants
In short: as §1

VERPE [10] = assay: Pre-emergence herbicidal action against VERPE; assay type: in vivo, Veronica persica; conditions: dosage 80 g/ha
In short: as §1

ALOMY [11] = assay: Pre-emergence herbicidal action against ALOMY; assay type: in vivo, Alopecurus myosuroides; conditions: 80 g/ha, pre-emergence, scored visually after 3 weeks vs untreated controls (100% = plants have died, 0% = like control plants)
In short: as §1

AMARE [12] = assay: Pre-emergence herbicidal action against AMARE; assay type: in vivo, Amaranthus retroflexus
In short: as §1

ECHCG [13] = assay: Post-emergence herbicidal action against ECHCG; assay type: in vivo, Echinochloa crus-galli
In short: as §2

AMARE [14] = assay: Post-emergence herbicidal action against AMARE; assay type: in vivo, Amaranthus retroflexus; conditions: 20 g/ha, visual assessment about 3 weeks after treatment, 100% = plants have died, 0% = like control plants
In short: as §2

SETVI = assay: Pre-emergence herbicidal action against SETVI; assay type: in vivo, Setaria viridis
In short: as §1

[15] = 20 g/ha, scored visually after 3 weeks vs untreated controls, 100% = plants have died, 0% = like control plants
[16] = 80 g/ha, scored visually after 3 weeks vs untreated controls (100% = plants have died, 0% = like control plants)

Cn1nnnc1NC(=O)c1ccc(C(F)F)c(C(=O)NCC2CC2)c1Br [Example 1-228]
90%: Pre-emergence action against AVEFA in % (AVEFA) | Pre-emergence action against VIOTR in % (VIOTR [1]; dosage 20 g/ha) | Post-emergence action against VERPE in % (VERPE [2]) | Pre-emergence action against ECHCG in % (ECHCG [3]; 20 g/ha) | Pre-emergence action against PHBPU in % (PHBPU [7]) | Post-emergence action against ALOMY in % (ALOMY [8]) | Post-emergence action against DIGSA in % (DIGSA [9]; 5 g/ha) | Post-emergence action against DIGSA (DIGSA [9]) | Pre-emergence action against VERPE in % (VERPE [10]) | Pre-emergence action against ALOMY (herbicidal activity) (ALOMY [11]) | Post-emergence action at 20 g/ha against AMARE in % (AMARE [14])
80%: Post-emergence action against PHBPU in % (PHBPU [4]; dosage 5 g/ha) | Post-emergence action against PHBPU in % (PHBPU [4]; dosage 20 g/ha) | Pre-emergence action against MATIN in % (MATIN; dosage 20 g/ha) | Post-emergence action against VIOTR in % (VIOTR [6]) | Post-emergence action against ECHCG in % (ECHCG [13]; dosage 20 g/ha)
100%: Pre-emergence action against VIOTR in % (VIOTR [1]; dosage 80 g/ha) | Pre-emergence action against ECHCG in % (ECHCG [3]; 80 g/ha) | Pre-emergence action against MATIN in % (MATIN; dosage 80 g/ha) | Pre-emergence action against DIGSA in % (DIGSA [5]; dosage 20 g/ha) | Pre-emergence action against DIGSA in % (DIGSA [5]; dosage 80 g/ha) | Pre-emergence action against ABUTH (herbicidal activity) (ABUTH) | Pre-emergence action against ABUTH (herbicidal activity in percent) (ABUTH) | Pre-emergence action against AMARE in % (AMARE [12]; [15]) | Pre-emergence action against AMARE in % (AMARE [12]; [16]) | Pre-emergence action against SETVI in % (SETVI; dosage 80 g/ha)

Cn1nnnc1NC(=O)c1ccc(C(F)F)c(C(=O)NCC(F)F)c1Br [Example 1-230]
100%: Pre-emergence action against VIOTR in % (VIOTR [1]; dosage 20 g/ha) | Pre-emergence action against VIOTR in % (VIOTR [1]; dosage 80 g/ha) | Pre-emergence action against MATIN in % (MATIN; dosage 80 g/ha) | Pre-emergence action against DIGSA in % (DIGSA [5]; dosage 80 g/ha) | Pre-emergence action against ABUTH (herbicidal activity) (ABUTH) | Pre-emergence action against VERPE in % (VERPE [10]) | Pre-emergence action against AMARE in % (AMARE [12]; [15]) | Pre-emergence action against AMARE in % (AMARE [12]; [16]) | Post-emergence action at 20 g/ha against AMARE in % (AMARE [14]) | Pre-emergence action against SETVI in % (SETVI; dosage 80 g/ha)
80%: Post-emergence action against VERPE in % (VERPE [2]) | Post-emergence action against ECHCG in % (ECHCG [13]; dosage 5 g/ha) | Post-emergence action against ECHCG in % (ECHCG [13]; dosage 20 g/ha)
90%: Pre-emergence action against AVEFA in % (AVEFA) | Pre-emergence action against ECHCG in % (ECHCG [3]; 80 g/ha) | Pre-emergence action against MATIN in % (MATIN; dosage 20 g/ha) | Pre-emergence action against DIGSA in % (DIGSA [5]; dosage 20 g/ha) | Pre-emergence action against PHBPU in % (PHBPU [7]) | Post-emergence action against ALOMY in % (ALOMY [8]) | Post-emergence action against DIGSA (DIGSA [9]) | Pre-emergence action against ABUTH (herbicidal activity in percent) (ABUTH) | Pre-emergence action against ALOMY (herbicidal activity) (ALOMY [11]) | Pre-emergence action against SETVI in % (SETVI; dosage 20 g/ha)
